Measured values from ChEMBL document CHEMBL5352456, “Isocyanides in med chem: A scaffold hopping approach for the identification of novel 4-isocyanophenylamides as potent antibacterial agents against methicillin-resistant Staphylococcusaureus” (Eur J Med Chem, 2023).
Active and inactive are the calls of the source. The calls are words filed in the database; no cut-off is given here.

test system: Staphylococcus epidermidis; assay: Antibacterial activity against Staphylococcus epidermidis ATCC 12228 assessed as reduction in microbial growth measured for 16 to 20 hrs by microdilution assay; type: functional; conditions: time 16-20 hrs

Which MIC does the source give for `[C-]#[N+]c1ccc(NC(=O)Cc2ccccc2)cc1` here?
The MIC was 2 µM.

With `[C-]#[N+]c1ccc(/C=C/c2ccccc2)cc1` as the molecule, how does the MIC read?
The MIC was 2 µM.

test system: not listed separately; assay: Metabolic stability in human plasma assessed as parent compound remaining at 50 uM incubated for 60 mins by LC-UV analysis; type: ADME, cell-free; conditions: read-out: Stability

Which remaining at 1 h, 50 µM does the source give for `[C-]#[N+]c1ccc(C(=O)NCc2ccccc2)cc1` here?
Its remaining at 1 h, 50 µM is 91%.

Which remaining at 1 h, 50 µM does the source give for `[C-]#[N+]c1ccc(NC(=O)Cc2ccccc2)cc1` here?
Its remaining at 1 h, 50 µM is greater than 99%.

test system: Staphylococcus aureus; assay: Antibacterial activity against Staphylococcus aureus ATCC 6538 assessed as reduction in microbial growth measured for 16 to 20 hrs by microdilution assay; type: functional; conditions: time 16-20 hrs

Which MIC does the source give for `[C-]#[N+]c1ccc(C(=O)NCc2ccccc2)cc1` here?
Its MIC is greater than 8 µM.

With `[C-]#[N+]c1ccc(NC(=O)Cc2ccccc2)cc1` as the molecule, how does the MIC read?
The MIC was greater than 8 µM.

Which MIC does the source give for `[C-]#[N+]c1ccc(/C=C/c2ccccc2)cc1` here?
Its MIC is 8 µM.

test system: Staphylococcus epidermidis; assay: Antibacterial activity against Staphylococcus epidermidis ATCC 35984 assessed as reduction in microbial growth measured for 16 to 20 hrs by microdilution assay; type: functional; conditions: time 16-20 hrs

Which MIC does the source give for `[C-]#[N+]c1ccc(NC(=O)Cc2ccccc2)cc1` here?
Its MIC is 1 µM.

For `[C-]#[N+]c1ccc(/C=C/c2ccccc2)cc1`, which MIC is on record?
Its MIC is 1 µM.

test system: Staphylococcus aureus; assay: Antibacterial activity against Staphylococcus aureus ATCC 25923 assessed as reduction in microbial growth measured for 16 to 20 hrs by microdilution assay; type: functional; conditions: time 16-20 hrs

Which MIC does the source give for `[C-]#[N+]c1ccc(C(=O)NCc2ccccc2)cc1` here?
The MIC was greater than 8 µM.

For `[C-]#[N+]c1ccc(NC(=O)Cc2ccccc2)cc1`, which MIC is on record?
The MIC was 8 µM.

With `[C-]#[N+]c1ccc(/C=C/c2ccccc2)cc1` as the molecule, how does the MIC read?
The MIC was 4 µM.

test system: Staphylococcus aureus; assay: Antibacterial activity against methicillin-resistant Staphylococcus aureus ATCC 33592 assessed as reduction in microbial growth measured for 16 to 20 hrs by microdilution assay; type: functional; conditions: time 16-20 hrs

For `[C-]#[N+]c1ccc(NC(=O)Cc2ccccc2)cc1`, which MIC is on record?
Its MIC is greater than 8 µM.

Which MIC does the source give for `[C-]#[N+]c1ccc(/C=C/c2ccccc2)cc1` here?
The MIC was 8 µM.

test system: Staphylococcus aureus; assay: Antibacterial activity against Staphylococcus aureus ATCC 29213 assessed as reduction in microbial growth measured for 16 to 20 hrs by microdilution assay; type: functional; conditions: time 16-20 hrs

For `[C-]#[N+]c1ccc(C(=O)NCc2ccccc2)cc1`, which MIC is on record?
Its MIC is greater than 8 µM.

With `[C-]#[N+]c1ccc(NC(=O)Cc2ccccc2)cc1` as the molecule, how does the MIC read?
Its MIC is greater than 8 µM.

For `[C-]#[N+]c1ccc(/C=C/c2ccccc2)cc1`, which MIC is on record?
Its MIC is 8 µM.

test system: Staphylococcus epidermidis; assay: Antibacterial activity against Staphylococcus epidermidis ATCC 49134 assessed as reduction in microbial growth measured for 16 to 20 hrs by microdilution assay; type: functional; conditions: time 16-20 hrs

With `[C-]#[N+]c1ccc(NC(=O)Cc2ccccc2)cc1` as the molecule, how does the MIC read?
Its MIC is 1 µM.

Which MIC does the source give for `[C-]#[N+]c1ccc(/C=C/c2ccccc2)cc1` here?
Its MIC is 1 µM.

test system: HaCaT; assay: Cytotoxicity against human HaCaT cells assessed as reduction in cell viability measured at 64 to 128 uM measured for 24 hrs by MTT assay; type: toxicity, cell-based; conditions: dose 64-128 µM

With `[C-]#[N+]c1ccc(/C=C/c2ccccc2)cc1` as the molecule, how does the Activity read?
The Activity was “Non-Toxic”.

test system: Escherichia coli; assay: Antibacterial activity against Escherichia coli ATCC 25922 assessed as inhibition of bacterial growth measured for 16 to 20 hrs by microdilution assay; type: functional; conditions: time 16-20 hrs

Which MIC does the source give for `[C-]#[N+]c1ccc(C(=O)NCc2ccccc2)cc1` here?
Its MIC is no less than 64 µM.

With `[C-]#[N+]c1ccc(NC(=O)Cc2ccccc2)cc1` as the molecule, how does the MIC read?
The MIC was no less than 64 µM.

test system: Staphylococcus aureus; assay: Bactericidal activity against methicillin-resistant Staphylococcus aureus ATCC 43300 measured for 24 hrs by time kill assay; type: functional, organism-based; conditions: not given

Which Activity does the source give for `[C-]#[N+]c1ccc(/C=C/c2ccccc2)cc1` here?
Its Activity is “Active”.

test system: Staphylococcus aureus; assay: Antibacterial activity against methicillin-resistant Staphylococcus aureus ATCC 43300 assessed as reduction in microbial growth measured for 16 to 20 hrs by microdilution assay; type: functional; conditions: time 16-20 hrs

For `[C-]#[N+]c1ccc(NC(=O)Cc2ccccc2)cc1`, which MIC is on record?
The MIC was greater than 8 µM.

For `[C-]#[N+]c1ccc(/C=C/c2ccccc2)cc1`, which MIC is on record?
The MIC was 8 µM.

test system: HaCaT; assay: Cytotoxicity against human HaCaT cells assessed as reduction in cell viability measured at 128 uM measured for 24 hrs by MTT assay; type: toxicity, cell-based; conditions: not given

For `[C-]#[N+]c1ccc(/C=C/c2ccccc2)cc1`, which Activity is on record?
Its Activity is less than 70%.

test system: Klebsiella pneumoniae; assay: Antibacterial activity against Klebsiella pneumoniae ATCC 700603 assessed as inhibition of bacterial growth measured for 16 to 20 hrs by microdilution assay; type: functional; conditions: time 16-20 hrs

With `[C-]#[N+]c1ccc(C(=O)NCc2ccccc2)cc1` as the molecule, how does the MIC read?
Its MIC is no less than 64 µM.

With `[C-]#[N+]c1ccc(NC(=O)Cc2ccccc2)cc1` as the molecule, how does the MIC read?
Its MIC is no less than 64 µM.

test system: Pseudomonas aeruginosa; assay: Antibacterial activity against Pseudomonas aeruginosa ATCC 10145 assessed as inhibition of bacterial growth measured for 16 to 20 hrs by microdilution assay; type: functional; conditions: time 16-20 hrs

For `[C-]#[N+]c1ccc(C(=O)NCc2ccccc2)cc1`, which MIC is on record?
Its MIC is no less than 64 µM.

With `[C-]#[N+]c1ccc(NC(=O)Cc2ccccc2)cc1` as the molecule, how does the MIC read?
Its MIC is no less than 64 µM.

test system: not listed separately; assay: Metabolic stability in rat liver microsome assessed as parent compound remaining at 50 uM incubated for 1 hr in presence of NADPH regenerating system and GSH by LC-UV analysis; type: ADME; conditions: liver microsomes, read-out: Stability

Which remaining at 1 h, 50 µM does the source give for `[C-]#[N+]c1ccc(C(=O)NCc2ccccc2)cc1` here?
The remaining at 1 h, 50 µM was 29%.

With `[C-]#[N+]c1ccc(NC(=O)Cc2ccccc2)cc1` as the molecule, how does the remaining at 1 h, 50 µM read?
Its remaining at 1 h, 50 µM is 20%.
